Tests used:
[1] = in vivo
Protocol: (§1) The experimental technique was based on ocular fundus fluorescence: Five patients were used in this study. […] Then every hour, the conjunctivae of the two eyes were exposed every hour to a 10% fluorescein solution. 8 hours later the fundus fluorescence in the two eyes was measured and analysed.

[2] = tested on: macular oedema secondary to CRVO; settings: injected into the eye (intravitreal); cited from earlier work
[3] = ocular fundus fluorescence after topical drug carrier plus fluorescein eye drops; settings: exposure of the conjunctival fornices to a 10% fluorescein solution; 7 hours later
Protocol: as §1

| Compound | anterior segment fluorescence compared with the eye receiving only fluorescein [1] | ocular fundus fluorescence compared with the eye receiving only fluorescein [1] | effect on macular oedema secondary to CRVO [2] | also measured |
| --- | --- | --- | --- | --- |
| bevacizumab [Avastin®] | – | – | improved | – |
| Brc1c(NC2=NCCN2)ccc2nccnc12 [brimonidine] | stronger | stronger | – | – |
| C[C@]12C=CC(=O)C=C1CC[C@H]1[C@@H]3C[C@@H](O)[C@](O)(C(=O)CO)[C@@]3(C)C[C@H](O)[C@@]12F [triancinolone (Aristocert®), triancinolone] | – | – | efficacy | – |
| O=C1OC2(c3ccc(O)cc3Oc3cc(O)ccc32)c2ccccc21 [fluorescein] | – | – | – | maximum vitreous concentration [3]: 1.5e-12 g/mL |

The next lines start with results.

| anterior segment fluorescence compared with the eye receiving only fluorescein [1] | ocular fundus fluorescence compared with the eye receiving only fluorescein [1] | Compound | effect on macular oedema secondary to CRVO [2] | also measured |
| --- | --- | --- | --- | --- |
| the same | stronger | CC(C)(C)NC[C@H](O)COc1nsnc1N1CCOCC1 [timolol] | – | – |
| – | stronger | CNC[C@H](O)c1cccc(O)c1 [neosynephrine] | – | – |
